Results as given in patent US9695155B2, “Herbicidal substituted pyrimidinyloxy benzene compounds” (E. I. DU PONT DE NEMOURS AND COMPANY, priority 2013, dated 2017).

What was measured:
pigweed [1] = assay: Test A preemergence; type: in vivo, Amaranthus retroflexus; conditions: 0 to 100 scale where 0 is no effect and 100 is complete control
Outline: (§1)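 Pre- and postemergence greenhouse screen. Soil: loam + sand. Spray carrier: solvent mixture, non-phytotoxic, with surfactant. Post timing at 1–2 leaves, height 2–10 cm. Readout: visual injury on a 0–100 scale roughly 10 days after application, untreated plants as reference.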

giant foxtail = assay: Test A postemergence; type: in vivo, Setaria faberii; conditions: 0 to 100 scale where 0 is no effect and 100 is complete control
Outline: as §1

corn = assay: Test A postemergence; type: in vivo, Zea mays; conditions: 0 to 100 scale where 0 is no effect and 100 is complete control
Outline: as §1

lambsquarters [2] = assay: Test C preemergence; type: in vivo, Chenopodium album; conditions: preemergence
Outline: (§2)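 Injury was assessed visually against controls 13 to 15 days after application, with 0 meaning no effect and 100 full control; missing entries are shown as a dash. Preemergence sprays hit seeded loam–sand soil, postemergence sprays hit 1- to 4-leaf plants.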

yellow nutsedge = assay: Test C preemergence; type: in vivo, Cyperus esculentus; conditions: preemergence
Outline: as §2

pigweed [3] = assay: Test C preemergence; type: in vivo, Amaranthus retroflexus; conditions: preemergence
Outline: as §2

ragweed = assay: Test C preemergence; type: in vivo, Ambrosia elatior; conditions: preemergence
Outline: as §2

waterhemp = assay: Test C preemergence; type: in vivo, Amaranthus rudis; conditions: preemergence
Outline: as §2

galium = assay: Test C postemergence; type: in vivo, Galium aparine
Outline: as §2

lambsquarters [4] = assay: Test C postemergence; type: in vivo, Chenopodium album
Outline: as §2

morningglory = assay: Test C postemergence; type: in vivo, Ipomoea coccinea
Outline: as §2

kochia = assay: Test C postemergence; type: in vivo, Kochia scoparia
Outline: as §2

[5] = 62 g ai/ha, scale 0 (no effect) to 100 (complete control)
[6] = 125 g ai/ha, scale 0 (no effect) to 100 (complete control)
[7] = 16 g ai/ha, scale 0 to 100 (0 no effect, 100 complete control)
[8] = 16 g ai/ha, postemergence, 0 is no effect, 100 is complete control
[9] = 125 g ai/ha, postemergence, visual rating, scale 0 to 100 (0 no effect, 100 complete control)
[10] = Postemergence, 62 g ai/ha, scale 0 to 100 (0 no effect, 100 complete control)

Cc1cnc(Oc2cccc(C#N)c2-n2cc(I)cn2)nc1 [Compound 136]
Plant response rating, Pigweed (pigweed [1]; 125 g ai/ha): 90
Pigweed plant response rating (pigweed [1]; 500 g ai/ha): 100
Foxtail, Giant plant response rating (giant foxtail; 125 g ai/ha): 30
Plant response rating, Foxtail, Giant (giant foxtail; 500 g ai/ha): 90
Corn plant response rating (corn; 125 g ai/ha): 10
Plant response rating, Corn (corn; 500 g ai/ha): 60
Lambsquarters plant response rating (lambsquarters [2]; [5]): 80
Lambsquarters plant response rating (lambsquarters [2]; [6]): 100
Nutsedge, Yellow plant response rating (yellow nutsedge; [7]): 0
Nutsedge, Yellow plant response rating (yellow nutsedge; [5]): 10
Nutsedge, Yellow plant response rating (yellow nutsedge; [6]): 35
Pigweed plant response rating (pigweed [3]; [7]): 0
Pigweed plant response rating (pigweed [3]; [5]): 40
Pigweed plant response rating (pigweed [3]; [6]): 100
Ragweed plant response rating (ragweed; [7]): 0
Ragweed plant response rating (ragweed; [5]): 20
Ragweed plant response rating (ragweed; [6]): 70
Waterhemp plant response rating (waterhemp; [7]): 0
Waterhemp plant response rating (waterhemp; [5]): 75
Waterhemp plant response rating (waterhemp; [6]): 100
Plant response rating (0 to 100), Galium (galium; [8]): 20
Plant response rating, Galium (galium; [9]): 60
Plant response rating, Galium (galium; [10]): 55
Plant response rating (0 to 100), Lambsquarters (lambsquarters [4]; [8]): 20
Plant response rating, Lambsquarters (lambsquarters [4]; [9]): 75
Plant response rating, Lambsquarters (lambsquarters [4]; [10]): 60
Plant response rating (0 to 100), Morningglory (morningglory; [8]): 5
Plant response rating, Morningglory (morningglory; [9]): 40
Plant response rating, Morningglory (morningglory; [10]): 50
Plant response rating (0 to 100), Kochia (kochia; [8]): 5
Plant response rating, Kochia (kochia; [9]): 70
Plant response rating, Kochia (kochia; [10]): 60

FC(F)(F)COc1cnn(-c2ccccc2Oc2ncc(Cl)cn2)c1 [Compound 138, 5-chloro-2-[2-[4-(2,2,2-trifluoroethoxy)-1H-pyrazol-1-yl]phenoxy]pyrimidine]
pest or weed control at 125 g/ha (pigweed [1]; Amaranthus retroflexus, pre-emergence, 125 g ai/ha, read-out: Plant response rating, Pigweed): 90%
pest or weed control at 500 g/ha (pigweed [1]; Amaranthus retroflexus, pre-emergence, 240 h, 500 g ai/ha, read-out: Pigweed plant response rating): 100%
pest or weed control at 125 g/ha (giant foxtail; Setaria faberi, post-emergence, 240 h, 125 g ai/ha, read-out: Foxtail, Giant plant response rating): 90%
pest or weed control at 500 g/ha (giant foxtail; Setaria faberi, post-emergence, 240 h, 500 g ai/ha, read-out: Plant response rating, Foxtail, Giant): 100%
plant injury at 125 g/ha (corn; Zea mays, post-emergence, 240 h, 125 g ai/ha, read-out: Corn plant response rating): 60%
Corn plant response rating (crop injury, 0 = no effect, 100 = complete kill) at 500 g/ha (corn; Zea mays, post-emergence, 240 h, 500 g ai/ha): 90%
pest or weed control at 16 g/ha (lambsquarters [2]; Chenopodium album, pre-emergence, 16 g ai/ha, scale 0 to 100 (0 no effect, 100 complete control), read-out: Lambsquarters plant response rating): 100%
pest or weed control at 62 g/ha (lambsquarters [2]; Chenopodium album, pre-emergence, 62 g ai/ha, scale 0 (no effect) to 100 (complete control), read-out: Lambsquarters plant response rating): 100%
pest or weed control at 125 g/ha (lambsquarters [2]; Chenopodium album, pre-emergence, 125 g ai/ha, scale 0 (no effect) to 100 (complete control), read-out: Lambsquarters plant response rating): 100%
pest or weed control at 16 g/ha (yellow nutsedge; Cyperus, pre-emergence, 16 g ai/ha, scale 0 to 100 (0 no effect, 100 complete control), read-out: Nutsedge, Yellow plant response rating): 5%
pest or weed control at 62 g/ha (yellow nutsedge; Cyperus, pre-emergence, 62 g ai/ha, scale 0 (no effect) to 100 (complete control), read-out: Nutsedge, Yellow plant response rating): 25%
pest or weed control at 125 g/ha (yellow nutsedge; Cyperus, pre-emergence, 125 g ai/ha, scale 0 (no effect) to 100 (complete control), read-out: Nutsedge, Yellow plant response rating): 55%
pest or weed control at 16 g/ha (pigweed [3]; Amaranthus retroflexus, pre-emergence, 16 g ai/ha, scale 0 to 100 (0 no effect, 100 complete control), read-out: Pigweed plant response rating): 85%
pest or weed control at 62 g/ha (pigweed [3]; Amaranthus retroflexus, pre-emergence, 62 g ai/ha, scale 0 (no effect) to 100 (complete control), read-out: Pigweed plant response rating): 100%
pest or weed control at 125 g/ha (pigweed [3]; Amaranthus retroflexus, pre-emergence, 125 g ai/ha, scale 0 (no effect) to 100 (complete control), read-out: Pigweed plant response rating): 100%
pest or weed control at 16 g/ha (ragweed; Ambrosia artemisiifolia, pre-emergence, 16 g ai/ha, scale 0 to 100 (0 no effect, 100 complete control), read-out: Ragweed plant response rating): 0%
pest or weed control at 62 g/ha (ragweed; Ambrosia artemisiifolia, pre-emergence, 62 g ai/ha, scale 0 (no effect) to 100 (complete control), read-out: Ragweed plant response rating): 5%
pest or weed control at 125 g/ha (ragweed; Ambrosia artemisiifolia, pre-emergence, 125 g ai/ha, scale 0 (no effect) to 100 (complete control), read-out: Ragweed plant response rating): 10%
pest or weed control at 16 g/ha (waterhemp; Amaranthus tuberculatus, pre-emergence, 16 g ai/ha, scale 0 to 100 (0 no effect, 100 complete control), read-out: Waterhemp plant response rating): 100%
pest or weed control at 62 g/ha (waterhemp; Amaranthus tuberculatus, pre-emergence, 62 g ai/ha, scale 0 (no effect) to 100 (complete control), read-out: Waterhemp plant response rating): 100%
pest or weed control at 125 g/ha (waterhemp; Amaranthus tuberculatus, pre-emergence, 125 g ai/ha, scale 0 (no effect) to 100 (complete control), read-out: Waterhemp plant response rating): 100%
pest or weed control at 16 g/ha (galium; Galium, post-emergence, 16 g ai/ha, postemergence, 0 is no effect, 100 is complete control, read-out: Plant response rating (0 to 100), Galium): 50%
pest or weed control at 125 g/ha (galium; Galium, post-emergence, 125 g ai/ha, postemergence, visual rating, scale 0 to 100 (0 no effect, 100 complete control), read-out: Plant response rating, Galium): 85%
pest or weed control at 62 g/ha (galium; Galium, post-emergence, Postemergence, 62 g ai/ha, scale 0 to 100 (0 no effect, 100 complete control), read-out: Plant response rating, Galium): 65%
pest or weed control at 16 g/ha (lambsquarters [4]; Chenopodium album, post-emergence, 16 g ai/ha, postemergence, 0 is no effect, 100 is complete control, read-out: Plant response rating (0 to 100), Lambsquarters): 20%
pest or weed control at 125 g/ha (lambsquarters [4]; Chenopodium album, post-emergence, 125 g ai/ha, postemergence, visual rating, scale 0 to 100 (0 no effect, 100 complete control), read-out: Plant response rating, Lambsquarters): 75%
pest or weed control at 62 g/ha (lambsquarters [4]; Chenopodium album, post-emergence, Postemergence, 62 g ai/ha, scale 0 to 100 (0 no effect, 100 complete control), read-out: Plant response rating, Lambsquarters): 60%
pest or weed control at 16 g/ha (morningglory; Ipomoea, post-emergence, 16 g ai/ha, postemergence, 0 is no effect, 100 is complete control, read-out: Plant response rating (0 to 100), Morningglory): 65%
pest or weed control at 125 g/ha (morningglory; Ipomoea, post-emergence, 125 g ai/ha, postemergence, visual rating, scale 0 to 100 (0 no effect, 100 complete control), read-out: Plant response rating, Morningglory): 85%
pest or weed control at 62 g/ha (morningglory; Ipomoea, post-emergence, Postemergence, 62 g ai/ha, scale 0 to 100 (0 no effect, 100 complete control), read-out: Plant response rating, Morningglory): 65%
pest or weed control at 16 g/ha (kochia; Bassia scoparia, post-emergence, 16 g ai/ha, postemergence, 0 is no effect, 100 is complete control, read-out: Plant response rating (0 to 100), Kochia): 80%
pest or weed control at 125 g/ha (kochia; Bassia scoparia, post-emergence, 125 g ai/ha, postemergence, visual rating, scale 0 to 100 (0 no effect, 100 complete control), read-out: Plant response rating, Kochia): 95%
pest or weed control at 62 g/ha (kochia; Bassia scoparia, post-emergence, Postemergence, 62 g ai/ha, scale 0 to 100 (0 no effect, 100 complete control), read-out: Plant response rating, Kochia): 95%
